Columns and labels:
Thymidine phosphorylase [1] = target: T1, Thymidine phosphorylase (Homo sapiens, UniProt P19971); experiment: Inhibition of anabolic activity of human thymidine phosphorylase
T1 sequence (P19971 whole entry): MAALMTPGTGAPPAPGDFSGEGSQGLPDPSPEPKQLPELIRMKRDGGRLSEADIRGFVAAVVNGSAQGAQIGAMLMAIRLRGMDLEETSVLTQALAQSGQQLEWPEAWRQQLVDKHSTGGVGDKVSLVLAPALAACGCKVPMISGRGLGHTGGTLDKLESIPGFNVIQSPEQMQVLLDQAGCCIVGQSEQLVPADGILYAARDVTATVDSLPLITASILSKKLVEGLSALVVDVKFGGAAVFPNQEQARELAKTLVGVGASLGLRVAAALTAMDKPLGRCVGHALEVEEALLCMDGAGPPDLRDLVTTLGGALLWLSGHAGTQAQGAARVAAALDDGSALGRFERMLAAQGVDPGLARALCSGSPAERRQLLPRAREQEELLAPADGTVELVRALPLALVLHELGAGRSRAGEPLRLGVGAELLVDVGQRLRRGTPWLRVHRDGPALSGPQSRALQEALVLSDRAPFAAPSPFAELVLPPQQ

Thymidine phosphorylase [2] = target: T1, Thymidine phosphorylase; experiment: Inhibition of catabolic activity of human thymidine phosphorylase
[3] = target: T2, Thymidine phosphorylase (Homo sapiens) (UniProt P19971); experiment: Percent inhibition by compound was measured on Human Thymidine Phosphorylase using 100 uM thymine
T2 sequence (whole entry): T1 sequence (P19971 whole entry)

Oc1cc(NCCc2ccccc2)nc(O)n1
IC50 (Thymidine phosphorylase [1]): 200 µM | IC50 (Thymidine phosphorylase [2]): 148 µM

Nc1cc(O)nc(O)n1
inhibition [3]: 41%

O=c1cc(NCc2ccccc2)[nH]c(=O)[nH]1
IC50 (Thymidine phosphorylase [2]): > 200 µM

From ChEMBL document CHEMBL1133767, “Novel nonsubstrate inhibitors of human thymidine phosphorylase, a potential target for tumor-dependent angiogenesis” (J Med Chem, 2000)
